From paper PMC10303271, “Synthesis and Receptor Binding Studies of α5 GABAAR Selective Novel Imidazodiazepines Targeted for Psychiatric and Cognitive Disorders” (Molecules, 2023)

Columns and labels:
5-HT1D = molecular target: T1, 5-HT1D (Homo sapiens, UniProt P28221); assay: PDSP primary binding 5-HT1D; details: 1.5 h; primary binding, 10,000 nM; last figure of the line = mean of the 4 before it; read-out: 5-HT1D, PDSP raw data, mean
T1 construct: purchased NIMH Psychoactive Drug Screening Program (PDSP)
Method: (§1) To determine if any off-target receptor-binding effects are present, all the novel ligands were sent to the National Institute of Mental Health (NIMH), Psychoactive Drug Screening Program (PDSP). The ligands were screened over a panel of 47 receptors, ion channels, and transporters to determine any other possible interactions with […]. The hERG-binding was also determined. […] No binding of the test compounds to calcium channels was observed. […] It is necessary to screen the compounds for hERG-binding during the early process of drug discovery. The unintentional binding of many drugs to hERG can cause blockade of hERG K+ channels in the heart, which can cause many side effects including cardiac arrhythmias and sudden death. […] All of the α5 imidazodiazepines were tested for hERG-binding.
(§2) The NIMH PDSP assay protocol book [https://kidbdev.med.unc.edu/databases/PDSP%20Protocols%20II%202013-03-28.pdf accessed on 23 April 2023]. describes the protocols for primary and secondary radio-ligand binding assays. These assays were carried out in a final volume of 125 µL per well in the appropriate binding buffer.
(§3) The binding of a ligand to a receptor, ion channel, or transporter was determined in the […] of 10 µM of the appropriate reference compound. […] Plates were incubated in the dark for 90 min at rt, and the reactions were stopped by vacuum filtration onto 0.3% polyethyleneimine (PEI) soaked 96-well filter mats using a 96-well Filtermateharvester. This was followed by three washes with cold PBS buffer. Radioactivity was then counted on a Microbeta counter. Nonlinear regression was used to analyze the data with N = 6 replicates.

5-HT1E = molecular target: T2, 5-HT1E (Homo sapiens, UniProt P28566); assay: PDSP primary binding 5-HT1E; details: primary binding, 10,000 nM; last figure of the line = mean of the 4 before it
T2 construct: purchased NIMH Psychoactive Drug Screening Program (PDSP)
Method: as §1, §2, §3

5-HT2A = molecular target: T3, 5-HT2A (Homo sapiens, UniProt P28223); assay: PDSP primary binding 5-HT2A; details: 1.5 h; primary binding, 10,000 nM; last figure of the line = mean of the 4 before it; read-out: 5-HT2A, PDSP raw data, mean
T3 construct: purchased NIMH Psychoactive Drug Screening Program (PDSP)
Method: as §1, §2, §3

5-HT2C = molecular target: T4, 5-HT2C (Homo sapiens, UniProt P28335); assay: PDSP primary binding 5-HT2C; details: 1.5 h; primary binding, 10,000 nM; last figure of the line = mean of the 4 before it; read-out: 5-HT2C, PDSP raw data, mean
T4 construct: purchased NIMH Psychoactive Drug Screening Program (PDSP)
T4 sequence (P28335 33-458): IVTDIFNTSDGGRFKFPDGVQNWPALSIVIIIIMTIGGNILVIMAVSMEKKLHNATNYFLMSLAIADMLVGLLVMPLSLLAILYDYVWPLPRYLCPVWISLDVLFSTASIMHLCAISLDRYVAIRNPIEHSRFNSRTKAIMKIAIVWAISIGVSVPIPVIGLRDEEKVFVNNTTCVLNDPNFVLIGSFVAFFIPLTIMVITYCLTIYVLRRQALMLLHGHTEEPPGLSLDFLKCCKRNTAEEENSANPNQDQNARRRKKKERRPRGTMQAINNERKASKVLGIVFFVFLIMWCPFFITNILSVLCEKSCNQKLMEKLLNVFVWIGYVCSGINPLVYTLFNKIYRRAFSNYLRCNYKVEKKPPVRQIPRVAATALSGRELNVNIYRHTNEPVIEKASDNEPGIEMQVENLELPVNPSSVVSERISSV
Method: as §1, §2, §3

Alpha1B = molecular target: T5, Alpha1B (Homo sapiens, UniProt P35368); assay: PDSP primary binding Alpha1B; details: 1.5 h; primary binding, 10,000 nM; last figure of the line = mean of the 4 before it; read-out: Alpha1B, PDSP raw data, mean
T5 construct: purchased NIMH Psychoactive Drug Screening Program (PDSP)
T5 sequence (P35368 1-520): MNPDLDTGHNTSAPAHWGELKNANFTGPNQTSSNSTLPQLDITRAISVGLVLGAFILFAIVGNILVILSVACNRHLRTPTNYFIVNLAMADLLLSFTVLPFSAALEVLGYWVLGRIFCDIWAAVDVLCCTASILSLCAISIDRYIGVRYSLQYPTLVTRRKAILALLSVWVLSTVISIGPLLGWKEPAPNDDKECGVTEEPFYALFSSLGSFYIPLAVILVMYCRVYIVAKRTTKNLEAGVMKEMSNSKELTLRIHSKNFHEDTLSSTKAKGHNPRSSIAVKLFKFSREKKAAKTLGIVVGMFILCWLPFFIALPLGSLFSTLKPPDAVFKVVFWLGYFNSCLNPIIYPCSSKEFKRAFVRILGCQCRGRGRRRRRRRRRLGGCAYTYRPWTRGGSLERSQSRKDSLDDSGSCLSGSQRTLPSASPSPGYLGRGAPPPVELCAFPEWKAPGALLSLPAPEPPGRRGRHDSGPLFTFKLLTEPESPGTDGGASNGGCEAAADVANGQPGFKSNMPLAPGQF
Method: as §1, §2, §3

Beta1 = molecular target: T6, Beta1 (Homo sapiens, UniProt P08588); assay: PDSP primary binding Beta1; details: 1.5 h; primary binding, 10,000 nM; last figure of the line = mean of the 4 before it; read-out: Beta1, PDSP raw data, mean
T6 construct: purchased NIMH Psychoactive Drug Screening Program (PDSP)
Method: as §1, §2, §3

D1 = molecular target: T7, D1 (Homo sapiens, UniProt P21728); assay: PDSP primary binding D1; details: 1.5 h; primary binding, 10,000 nM; last figure of the line = mean of the 4 before it; read-out: D1, PDSP raw data, mean
T7 construct: purchased NIMH Psychoactive Drug Screening Program (PDSP)
Method: as §1, §2, §3

H3 = molecular target: T8, H3 (Homo sapiens, UniProt Q9Y5N1); assay: PDSP primary binding H3; details: primary binding, 10,000 nM; last figure of the line = mean of the 4 before it; read-out: H3, PDSP raw data, mean
T8 construct: purchased NIMH Psychoactive Drug Screening Program (PDSP)
Method: as §1, §2, §3

NET = molecular target: T9, NET (Homo sapiens, UniProt P23975); assay: PDSP primary binding NET; details: primary binding, 10,000 nM; last figure of the line = mean of the 4 before it; read-out: NET, PDSP raw data, mean
T9 construct: purchased NIMH Psychoactive Drug Screening Program (PDSP)
Method: as §1, §2, §3

NMDA = assay: PDSP primary binding NMDA; details: primary binding, 10,000 nM; last figure of the line = mean of the 4 before it
Method: as §1, §2, §3

T7 sequence (P21728 whole entry): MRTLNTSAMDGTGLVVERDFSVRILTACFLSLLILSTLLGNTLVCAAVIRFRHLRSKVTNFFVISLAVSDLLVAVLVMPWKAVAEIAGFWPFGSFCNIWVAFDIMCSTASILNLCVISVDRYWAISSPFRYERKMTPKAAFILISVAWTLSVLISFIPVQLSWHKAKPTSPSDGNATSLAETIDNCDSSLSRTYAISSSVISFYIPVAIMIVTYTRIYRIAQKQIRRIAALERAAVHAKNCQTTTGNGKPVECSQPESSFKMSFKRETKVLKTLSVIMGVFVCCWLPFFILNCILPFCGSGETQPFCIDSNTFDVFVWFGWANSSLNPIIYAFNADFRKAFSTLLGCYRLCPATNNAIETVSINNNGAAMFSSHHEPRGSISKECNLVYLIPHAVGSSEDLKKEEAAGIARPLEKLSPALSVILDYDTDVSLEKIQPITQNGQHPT
T6 sequence (P08588 whole entry): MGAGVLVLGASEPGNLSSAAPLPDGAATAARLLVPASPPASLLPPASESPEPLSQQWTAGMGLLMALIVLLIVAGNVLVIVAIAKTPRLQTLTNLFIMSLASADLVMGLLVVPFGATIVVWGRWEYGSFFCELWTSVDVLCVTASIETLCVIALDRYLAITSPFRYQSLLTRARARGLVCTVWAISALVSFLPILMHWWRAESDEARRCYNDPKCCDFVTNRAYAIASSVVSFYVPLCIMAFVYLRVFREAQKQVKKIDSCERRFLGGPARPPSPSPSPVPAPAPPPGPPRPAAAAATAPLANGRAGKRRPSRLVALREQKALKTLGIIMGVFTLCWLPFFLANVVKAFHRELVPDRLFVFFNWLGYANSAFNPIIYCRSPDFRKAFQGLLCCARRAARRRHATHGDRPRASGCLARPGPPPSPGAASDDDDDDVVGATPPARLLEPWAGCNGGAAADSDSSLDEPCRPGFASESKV
T9 sequence (P23975 whole entry): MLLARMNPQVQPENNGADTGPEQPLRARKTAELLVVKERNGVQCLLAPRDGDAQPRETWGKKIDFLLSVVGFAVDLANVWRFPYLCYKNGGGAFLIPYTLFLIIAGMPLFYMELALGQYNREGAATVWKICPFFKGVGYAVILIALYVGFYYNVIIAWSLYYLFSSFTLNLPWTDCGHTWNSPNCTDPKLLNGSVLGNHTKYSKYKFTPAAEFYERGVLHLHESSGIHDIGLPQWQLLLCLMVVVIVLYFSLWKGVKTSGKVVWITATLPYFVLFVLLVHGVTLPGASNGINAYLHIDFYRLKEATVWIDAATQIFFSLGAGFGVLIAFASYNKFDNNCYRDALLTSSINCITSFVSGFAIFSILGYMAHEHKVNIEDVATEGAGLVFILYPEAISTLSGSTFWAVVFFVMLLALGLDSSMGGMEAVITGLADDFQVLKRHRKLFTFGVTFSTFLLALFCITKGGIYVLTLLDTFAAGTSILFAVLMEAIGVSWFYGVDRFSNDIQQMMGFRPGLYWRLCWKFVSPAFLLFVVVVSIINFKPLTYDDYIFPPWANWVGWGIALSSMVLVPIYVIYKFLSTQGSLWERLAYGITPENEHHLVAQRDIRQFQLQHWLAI
T8 sequence (Q9Y5N1 whole entry): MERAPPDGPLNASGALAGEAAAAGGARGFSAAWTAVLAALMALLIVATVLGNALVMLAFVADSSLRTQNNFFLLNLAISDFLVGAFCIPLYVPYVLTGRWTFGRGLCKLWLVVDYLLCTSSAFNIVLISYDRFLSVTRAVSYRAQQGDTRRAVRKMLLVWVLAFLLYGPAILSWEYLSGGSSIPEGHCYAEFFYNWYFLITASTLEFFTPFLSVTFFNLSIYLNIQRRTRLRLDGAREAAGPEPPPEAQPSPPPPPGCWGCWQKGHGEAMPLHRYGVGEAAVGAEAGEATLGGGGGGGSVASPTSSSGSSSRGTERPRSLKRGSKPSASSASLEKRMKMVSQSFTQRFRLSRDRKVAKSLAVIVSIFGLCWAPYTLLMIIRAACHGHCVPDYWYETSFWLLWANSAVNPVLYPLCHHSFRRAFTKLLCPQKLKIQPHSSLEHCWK
T2 sequence (P28566 whole entry): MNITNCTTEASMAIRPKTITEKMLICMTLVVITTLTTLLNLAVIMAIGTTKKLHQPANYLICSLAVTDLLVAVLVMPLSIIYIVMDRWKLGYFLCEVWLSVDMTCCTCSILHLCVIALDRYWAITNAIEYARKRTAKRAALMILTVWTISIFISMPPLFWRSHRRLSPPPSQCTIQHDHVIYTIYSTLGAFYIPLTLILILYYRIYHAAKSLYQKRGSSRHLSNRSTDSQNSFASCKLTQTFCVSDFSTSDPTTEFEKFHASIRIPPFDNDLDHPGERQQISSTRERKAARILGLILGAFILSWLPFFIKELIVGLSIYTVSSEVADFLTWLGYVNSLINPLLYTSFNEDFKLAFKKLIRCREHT
T3 sequence (P28223 whole entry): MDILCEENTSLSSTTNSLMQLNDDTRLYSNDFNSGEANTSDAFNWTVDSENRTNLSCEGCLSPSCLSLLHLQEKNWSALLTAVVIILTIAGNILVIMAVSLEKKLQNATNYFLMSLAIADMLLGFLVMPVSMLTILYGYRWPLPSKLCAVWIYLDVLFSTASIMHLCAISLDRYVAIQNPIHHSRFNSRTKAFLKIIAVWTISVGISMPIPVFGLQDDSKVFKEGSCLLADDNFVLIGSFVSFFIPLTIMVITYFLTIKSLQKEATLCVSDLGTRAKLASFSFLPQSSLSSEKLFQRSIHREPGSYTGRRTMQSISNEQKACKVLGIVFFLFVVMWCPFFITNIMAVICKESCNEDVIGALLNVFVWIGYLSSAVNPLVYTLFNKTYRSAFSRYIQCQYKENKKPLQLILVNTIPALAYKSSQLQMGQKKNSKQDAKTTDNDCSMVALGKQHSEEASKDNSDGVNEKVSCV
T1 sequence (P28221 whole entry): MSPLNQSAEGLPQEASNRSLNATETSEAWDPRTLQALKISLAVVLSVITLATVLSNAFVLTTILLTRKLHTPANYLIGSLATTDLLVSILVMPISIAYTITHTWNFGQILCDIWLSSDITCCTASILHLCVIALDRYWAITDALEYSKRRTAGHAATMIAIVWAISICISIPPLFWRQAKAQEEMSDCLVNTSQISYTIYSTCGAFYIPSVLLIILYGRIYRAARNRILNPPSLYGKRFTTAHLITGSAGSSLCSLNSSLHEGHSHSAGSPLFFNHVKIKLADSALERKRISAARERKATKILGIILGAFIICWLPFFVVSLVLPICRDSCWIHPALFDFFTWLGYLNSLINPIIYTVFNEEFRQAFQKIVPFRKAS

| SMILES | inhibition at 10 µM (5-HT1D) | 5-HT1E, PDSP raw data, mean (5-HT1E) | inhibition at 10 µM (5-HT2A) | inhibition at 10 µM (5-HT2C) | inhibition at 10 µM (Alpha1B) | inhibition at 10 µM (Beta1) | inhibition at 10 µM (D1) | inhibition at 10 µM (H3) | inhibition at 10 µM (NET) | NMDA, PDSP raw data, mean (NMDA) |
| --- | --- | --- | --- | --- | --- | --- | --- | --- | --- | --- |
| CCc1noc(-c2ncn3c2CN=C(c2ccccc2F)c2cc(C4CC4)ccc2-3)n1 [Compound 44, 5-(8-Cyclopropyl-6-(2′-fluorophenyl)-4H-benzo[f]imidazo[1,5-a][1,4]diazepin-3-yl)-3-ethyl-1,2,4-oxadiazole] | 67.4% | 11.75% | 21.2% | 24.7% | 6.87% | -5.19% | 49.6% | 7.26% | 4.9% | 20.03% |
| CCc1noc(-c2ncn3c2[C@@H](C)N=C(c2ccccc2F)c2cc(C4CC4)ccc2-3)n1 [Compound 46, (R)-5-(8-Cyclopropyl-6-(2′-fluorophenyl)-4-methyl-4H-benzo[f]imidazo[1,5-a][1,4]diazepin-3-yl)-3-ethyl-1,2,4-oxadiazole] | 17.7% | -18.76% | 23.6% | 3.53% | 9.31% | -26.4% | 74.6% | -6.39% | 24.3% | 66.04% |
